Source: PubChem BioAssay (NCI)
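Tested at 5 concentrations; 48 h exposure; 96-well plates; endpoints linearly interpolated, else capped at highest concentration. Abbreviation: GI50, concentration required for 50% inhibition of growth. Definition used: TGI = concentration required for complete inhibition of growth.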

Tests used:
Assay in all cases: inhibition of tumour cell growth, NCI panel, 48 h
[1] = system: RPMI-8226 leukemia
[2] = system: SK-MEL-5 melanoma
[3] = system: SNB-19 CNS
[4] = system: IGROV1 ovarian
[5] = system: EKVX NSCLC
[6] = system: HCC-2998 colon
[7] = system: SF-268 CNS
[8] = system: NCI-H460 lung
[9] = system: K-562 leukemia
[10] = system: U251 CNS
[11] = system: SR leukemia
[12] = system: HT29 colon
[13] = system: HOP-62 NSCLC
[14] = system: HOP-92 NSCLC
[15] = system: MDA-MB-435
[16] = system: NCI/ADR-RES ovarian
[17] = system: DU-145 prostate
[18] = system: SK-MEL-28 melanoma
[19] = system: BT-549 breast
[20] = system: OVCAR-8 ovarian
[21] = system: SNB-75 CNS
[22] = system: OVCAR-5 ovarian
[23] = system: NCI-H23 lung
[24] = system: HCT-15 colon
[25] = system: HL-60(TB) leukemia
[26] = system: SN12C renal
[27] = system: UO-31 renal
[28] = system: OVCAR-4 ovarian
[29] = system: MDA-N
[30] = system: RXF 393 renal
[31] = system: MOLT-4 leukemia
[32] = system: UACC-257 melanoma
[33] = system: MALME-3M melanoma
[34] = system: M14 melanoma
[35] = system: PC-3 prostate
[36] = system: A498 renal
[37] = system: OVCAR-3 ovarian
[38] = system: ACHN renal
[39] = system: LOX IMVI melanoma
[40] = system: SW-620 colon
[41] = system: SF-295 CNS
[42] = system: 786-0 renal
[43] = system: A549 NSCLC
[44] = system: CCRF-CEM leukemia
[45] = system: HS 578T breast
[46] = system: TK-10 renal
[47] = system: NCI-H226 lung
[48] = system: HCT-116 colon
[49] = system: MCF7 breast
[50] = system: T-47D breast
[51] = system: COLO 205 colon
[52] = system: SK-OV-3 ovarian
[53] = system: MDA-MB-231 breast
[54] = system: SF-539 CNS
[55] = system: CAKI-1 renal
[56] = system: NCI-H522 lung
[57] = system: UACC-62 melanoma
[58] = system: SK-MEL-2 melanoma
[59] = system: KM12 colon

O=C1CC(C(OCc2ccccc2)C(OCc2ccccc2)C(OCc2ccccc2)C(COCc2ccccc2)OCc2ccccc2)CC(=O)N1 (configuration not stated)
TGI [1]: > 100 µM
TGI [2]: > 100 µM
TGI [3]: > 100 µM
TGI [4]: > 100 µM
TGI [5]: > 100 µM
TGI [6]: > 100 µM
TGI [7]: > 100 µM
TGI [8]: > 100 µM
TGI [9]: > 100 µM
TGI [10]: > 100 µM
TGI [11]: > 100 µM
TGI [12]: > 100 µM
TGI [13]: > 100 µM
TGI [14]: > 100 µM
TGI [15]: > 100 µM
TGI [16]: > 100 µM
TGI [17]: > 100 µM
TGI [18]: > 100 µM
TGI [19]: > 100 µM
TGI [20]: > 100 µM
TGI [21]: > 100 µM
TGI [22]: > 100 µM
TGI [23]: > 100 µM
TGI [24]: > 100 µM
TGI [25]: > 100 µM
TGI [26]: > 100 µM
TGI [27]: > 100 µM
TGI [28]: > 100 µM
TGI [29]: > 100 µM
TGI [30]: > 100 µM
TGI [31]: > 100 µM
TGI [32]: > 100 µM
TGI [33]: > 100 µM
TGI [34]: > 100 µM
TGI [35]: > 100 µM
TGI [36]: > 100 µM
TGI [37]: > 100 µM
TGI [38]: > 100 µM
TGI [39]: > 100 µM
TGI [40]: > 100 µM
TGI [41]: > 100 µM
TGI [42]: > 100 µM
TGI [43]: > 100 µM
TGI [44]: > 100 µM
TGI [45]: > 100 µM
TGI [46]: > 100 µM

CCCCN(CC)CCCCCCCCCCN1CCCc2cc(OC)ccc21
GI50 [1]: 2.15 µM
TGI [1]: 4.79 µM
GI50 [2]: 1.73 µM
TGI [2]: 3.12 µM
GI50 [3]: 4.01 µM
TGI [3]: 18.8 µM
GI50 [4]: 3.18 µM
TGI [4]: 12.9 µM
GI50 [47]: 2.8 µM
TGI [47]: 8.16 µM
GI50 [48]: 1.73 µM
TGI [48]: 3.63 µM
GI50 [49]: 1.8 µM
TGI [49]: 3.59 µM
GI50 [5]: 3.57 µM
TGI [5]: 25.4 µM
GI50 [50]: 2.11 µM
TGI [50]: 5.83 µM
GI50 [6]: 2.32 µM
TGI [6]: 6.38 µM
GI50 [7]: 6.52 µM
TGI [7]: 32.1 µM
GI50 [8]: 2.52 µM
TGI [8]: 6.6 µM
GI50 [9]: 2.21 µM
TGI [9]: 5.69 µM
GI50 [10]: 2.93 µM
TGI [10]: 7.56 µM
GI50 [11]: 1.94 µM
TGI [11]: 5.56 µM
GI50 [51]: 1.6 µM
TGI [51]: 3.25 µM
GI50 [12]: 1.46 µM
TGI [12]: 4.29 µM
GI50 [52]: 5.19 µM
TGI [52]: 21 µM
GI50 [13]: 2.69 µM
TGI [13]: 10.2 µM
GI50 [14]: 2.19 µM
TGI [14]: 6.76 µM
GI50 [15]: 2.41 µM
TGI [15]: 7.06 µM
GI50 [16]: 2.07 µM
TGI [16]: 6.15 µM
GI50 [53]: 2.26 µM
TGI [53]: 7.04 µM
GI50 [54]: 3.32 µM
TGI [54]: 9.35 µM
GI50 [17]: 6.48 µM
TGI [17]: 53 µM
GI50 [55]: 2.13 µM
TGI [55]: 7.47 µM
GI50 [18]: 2.92 µM
TGI [18]: 7.33 µM
GI50 [19]: 3.63 µM
TGI [19]: 12.5 µM
GI50 [20]: 3.92 µM
TGI [20]: 13.2 µM
GI50 [21]: 3.02 µM
TGI [21]: 11 µM
GI50 [22]: 6.37 µM
TGI [22]: 24.1 µM
GI50 [23]: 2.16 µM
TGI [23]: 6.09 µM
GI50 [24]: 3.3 µM
TGI [24]: 13.6 µM
GI50 [25]: 2.07 µM
TGI [25]: 5 µM
GI50 [26]: 3.36 µM
TGI [26]: 15.3 µM
GI50 [27]: 2.08 µM
TGI [27]: 11.3 µM
GI50 [28]: 4.33 µM
TGI [28]: 19.6 µM
GI50 [56]: 1.66 µM
TGI [56]: 3.5 µM
GI50 [30]: 2.34 µM
TGI [30]: 4.93 µM
GI50 [31]: 3.09 µM
TGI [31]: 10.5 µM
GI50 [32]: 3.34 µM
TGI [32]: 9.2 µM
GI50 [33]: 2.33 µM
TGI [33]: 4.98 µM
GI50 [34]: 2.11 µM
TGI [34]: 4.99 µM
GI50 [35]: 3.06 µM
TGI [35]: 12.7 µM
GI50 [36]: 2.36 µM
TGI [36]: 9.54 µM
GI50 [37]: 3.35 µM
TGI [37]: 11.3 µM
GI50 [38]: 3.91 µM
TGI [38]: 14.9 µM
GI50 [39]: 1.7 µM
TGI [39]: 3.34 µM
GI50 [40]: 2.23 µM
TGI [40]: 6.24 µM
GI50 [57]: 2.03 µM
TGI [57]: 5.31 µM
GI50 [41]: 1.8 µM
TGI [41]: 3.72 µM
GI50 [42]: 2.03 µM
TGI [42]: 3.94 µM
GI50 [58]: 1.95 µM
TGI [58]: 4.15 µM
GI50 [43]: 5.21 µM
TGI [43]: 20.9 µM
GI50 [44]: 3 µM
TGI [44]: 12.5 µM
GI50 [59]: 2.31 µM
TGI [59]: 5.14 µM
GI50 [45]: 4.2 µM
TGI [45]: > 100 µM
GI50 [46]: 1.89 µM
TGI [46]: 3.91 µM
